Data taken from patent US9133105B2, “Transcription factor modulators” (C & C BIOPHARMA, LLC, priority 2013, dated 2015).

Columns and labels:
[1] = system: Nalm-6 leukemia cells; assay: Inhibition of Nalm-6 leukemia cell growth (CellTiter-Glo); type: cell-based; conditions: 72 hours treatment; for IC50: Homo sapiens, NALM-6
Description: Treatment of cells. Nalm-6 leukemia cells were grown to the logarithmic growth phase and seeded into 24-well plates. Plated cells were incubated at 37° C. in a 5% CO2 humidified incubator for 24 hours and treated with various concentrations of compounds. Treated cells were further incubated for 72 hours and then were examined for cell proliferation. Cell proliferation was determined using the CellTiter-Glo Luminescence Cell Viability assay (Promega Corporation, Madison, Wis.) according to the manufacturer's protocol. The calculated inhibition rate was determined with the following formula: Inhibition rate (%)=(1−Luminescence of experimental group/Luminescence of control group)×100. The 1050 was the calculated concentration of a compound needed to inhibit half of the maximum cell growth (equivalent to cell growth in control group) based on the corresponding dose-response curve under the described experimental conditions.

[2] = target: MEF2D and HDAC4 protein interactions (Homo sapiens (Human), UniProt Q14814); assay: Mammalian two-hybrid assay (GAL4-MEF2D / HDAC4-VP16 luciferase reporter); type: cell-based; conditions: for Relative Activity, I / Inhibition of MEF2D/HDAC4 interactions (in words) / IC50: HeLa cells; for Relative Activity, I: test compound 10 μM overnight, ratio X/Y versus DMSO control, expressed in percentile, low = strong inhibition; for Group: class by relative activity I at 10 μM; for Inhibition of MEF2D/HDAC4 interactions (in words): two-hybrid assay; for IC50: concentration when X/Y equals 50
Description: Detection of MEF2D and HDAC4 interactions. In this mammalian two-hybrid assay, HDAC4 and MEF2D proteins were used as representative members of their respective protein families because the protein-protein interactions involved in the recruitment of class IIa HDACs by MEF2 were highly conserved. Two separate DNA constructs were made with MEF2D fused with the GAL4 DNA binding domain (GAL4-MEF2D) and with the MEF2-binding motif of HDAC4 (AA 155-220) fused with the viral transactivator VP-16 (HDAC4-VP16) (FIG. 1). Human epithelial carcinoma cells (HeLa) were co-transfected with the two DNA constructs (GAL4-MEF2D and HDAC4-VP16) and a reporter plasmid (Gal4Luc). […] MEF2D and HDAC4 protein interactions were detected as a result of the GAL4-MEF2D and HDAC4-VP16 protein complex binding a DNA promoter on the reporter plasmid (Gal4Luc) and driving cellular expression of a luciferase gene (FIG. 1). The measured luciferase protein signal was proportional to the amount of MEF2D and HDAC4 protein interactions occurring with the cell.
The relatively stronger signal from the GAL4VP16 positive control construct was probably due to the fact that the activation domain of VP16 was covalently linked to GAL4, whereas in the mammalian two-hybrid assay it was recruited by protein-protein interactions between HDAC4 and MEF2 (FIG. 2). This assay permitted the detection of the interactions between HDAC4 and MEF2D with minimal interference from endogenous factors. The HDAC4 fragment lacked the catalytic domain so that the deacetylase activity was excluded from the assay.
Detection of inhibition of MEF2D and HDAC4 interactions. Next, the assay was used to test whether the compounds could disrupt the interactions between MEF2D and HDAC4. After co-expressing the GAL4-MEF2D and HDAC4-VP16 DNA constructs and reporter plasmid, the HeLa cells were treated with a test compound (10 μM) overnight. Cells transfected with the positive control GAL4VP16 fusion construct and reporter plasmid were also treated with the test compound (10 μM) overnight. As another control, DMSO was added (but kept below 0.2% V/V) to cells transfected with the positive GAL4VP16 fusion construct or the GAL4-MEF2D and HDAC4-VP16 DNA constructs. A luciferase assay was performed as described above according to the manufacturer's protocol (Promega). The luciferase response was normalized against the Renilla Luciferase as an internal control.
The relative activity and IC50 calculations. […] The relative activity, I, was the ratio of former to later, i.e. X/Y, expressed in percentile. […] The IC50 was the concentration of the compounds when X/Y equals 50.

Sequence of MEF2D and HDAC4 protein interactions (Q14814 whole entry, species assumed, the tested form may be a part): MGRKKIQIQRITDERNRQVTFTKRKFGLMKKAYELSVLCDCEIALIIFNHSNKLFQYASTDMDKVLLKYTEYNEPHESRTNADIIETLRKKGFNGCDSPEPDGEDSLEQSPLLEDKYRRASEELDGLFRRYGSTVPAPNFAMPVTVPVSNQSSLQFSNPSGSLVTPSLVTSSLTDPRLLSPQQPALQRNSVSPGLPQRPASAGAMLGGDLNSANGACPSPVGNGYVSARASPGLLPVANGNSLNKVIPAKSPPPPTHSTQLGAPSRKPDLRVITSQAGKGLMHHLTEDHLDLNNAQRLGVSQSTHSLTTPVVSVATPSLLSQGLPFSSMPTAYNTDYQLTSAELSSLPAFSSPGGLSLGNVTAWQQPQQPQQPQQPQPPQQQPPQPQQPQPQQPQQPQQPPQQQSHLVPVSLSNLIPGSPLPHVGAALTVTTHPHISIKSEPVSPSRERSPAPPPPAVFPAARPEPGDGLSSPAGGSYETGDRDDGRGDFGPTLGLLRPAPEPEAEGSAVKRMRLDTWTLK

Row | SMILES | IC50 [1] | Relative Activity, I [2] | Group [2] | Inhibition of MEF2D/HDAC4 interactions (in words) [2] | IC50 [2] | Nalm-6 leukemia cell growth inhibition (in words) [1]
1 | Nc1ccccc1NC(=O)CCCCCC(=O)NCc1cccnc1 [CC1, N^1-(2-aminophenyl)-N^7-(pyridin-3-ylmethyl)heptanediamide] | > 10000 nM | 79.2 | C (C (50 < I < 100 included)) | mild inhibitory effect |  | mild inhibitory effect
2 | Nc1ccccc1NC(=O)CCCCCC(=O)Nc1ccc(O)cc1 [CC3, N^1-(2-aminophenyl)-N^7-(4-hydroxyphenyl)heptanediamide] | 2610 nM | 5.4 | A (A (I < 22 included)) |  | 100 nM | 
3 | Nc1ccncc1NC(=O)CCCCCC(=O)Nc1cccc(Br)c1 [CC4, N^1-(4-aminopyridin-3-yl)-N^7-(3-bromophenyl)heptanediamide] | > 10000 nM | 79.5 | C (C (50 < I < 100 included)) | mild inhibitory effect |  | mild inhibitory effect
4 | Nc1ccccc1NC(=O)CCCCCNC(=O)c1ccc(Br)cc1 [CC5, N-(6-((2-aminophenyl)amino)-6-oxohexyl)-4-bromobenzamide] | 1380 nM | 3.6 | A (A (I < 22 included)) |  | 70 nM | 

Further lines, with some results ahead:

Row | IC50 [1] | Relative Activity, I [2] | Group [2] | Inhibition of MEF2D/HDAC4 interactions (in words) [2] | IC50 [2] | SMILES | Nalm-6 leukemia cell growth inhibition (in words) [1]
5 | 1460 nM | 4.7 | A (A (I < 22 included)) |  | 90 nM | Nc1ccccc1NC(=O)CCCCCC(=O)Nc1cccc(O)c1 [CC2, N^1-(2-aminophenyl)-N^7-(3-hydroxyphenyl)heptanediamide] | 
6 | 2050 nM | 62.6 | C (C (50 < I < 100 included)) | weaker inhibition |  | Nc1ccccc1NC(=O)CCCCCC(=O)Nc1ccccc1Br [CC6, N^1-(2-aminophenyl)-N^7-(2-bromophenyl)heptanediamide] | strong growth inhibition
7 | 1360 nM | 5.7 | A (A (I < 22 included)) |  | 110 nM | Nc1ccccc1NC(=O)CCCCCC(=O)Nc1cncc(Br)c1 [CC7, N^1-(2-aminophenyl)-N^7-(5-bromopyridin-3-yl)heptanediamide] | 
